Test results taken from US10144709B2, “Piperidine compounds, pharmaceutical composition comprising the same and its use” (SK BIOPHARMACEUTICALS CO., LTD., priority 2008, dated 2018).
Structures can show the parent of a compound that is named as a salt.

Tested on: ICR CD strain male mice
Test: Gastric emptying enhancing activity (phenol red meal)
Assay type: in vivo
Details: Mus musculus, ip, 0.25 h, 3.0 mg/kg i.p., gastric emptying at 15 min after test meal, increase vs vehicle
Procedure: ICR CD strain male mice (body weight, 25˜30 g; 8 mice per one group) were fasted for 24 h but allowed free access to water until 3 hours before the test.
Compounds to be tested for promoting GI motility were injected intraperitoneally or given orally at 30 min or 60 min prior to phenol red meal administration. Fifteen (15) min after administration of a test meal (0.5% Phenol red in 1.5% methylcellulose solution), mice were sacrificed and the stomach (pylorus˜cardia) was removed and collected to vial. The stomach was homogenized with its contents in 0.1N NaOH and the mixture was centrifuged (700*g) for 20 min. 2.5 mL of the supernatant was added to 0.25 mL of trichloroacetic acid solution (20% w/v) to precipitate proteins. After centrifuging (2600*g) for 20 min, 0.5 mL of the supernatant was added to 0.25 mL of 1N NaOH. The mixture was homogenized and its absorbance (Abs) was read at 560 nm.
In each experiment, one group was sacrificed just after the administration of the test meal and was considered as a standard (0% emptying). The gastric emptying (GE) at the 15 min period was calculated according to the following formula. GE (%)=(1−Abstest/Absstandard)×100 Increase (%)=(GE %test−GE %vehicle)/GE %vehicle*100

COc1cc(N)c(Cl)cc1C(=O)NCC1CCN(CC(O)c2ccc(F)cc2)CC1 (stereo not drawn) [Example 2, 4-amino-5-chloro-N-[[1-[2-(4-fluorophenyl)-2-hydroxyethyl]piperidin-4-yl]methyl]-2-methoxybenzamide; hydrochloride]
change in vivo at 3 mg/kg: 42.6%

COc1cc(N)c(Cl)cc1C(=O)NCC1CCN(CC(O)c2ccc(C)cc2)CC1 (stereo not drawn) [Example 3, 4-amino-5-chloro-N-[[1-[2-hydroxy-2-(4-methylphenyl)ethyl]piperidin-4-yl]methyl]-2-methoxybenzamide; hydrochloride]
change in vivo at 3 mg/kg: 71.1%

COc1ccc(C(O)CN2CCC(CNC(=O)c3cc(Cl)c(N)cc3OC)CC2)cc1 (stereo not drawn) [Example 4, 4-amino-5-chloro-N-[[1-[2-hydroxy-2-(4-methoxyphenyl)ethyl]piperidin-4-yl]methyl]-2-methoxybenzamide; hydrochloride]
change in vivo at 3 mg/kg: 74.1%

COc1cc(N)c(Cl)cc1C(=O)NCC1CCN(CC(O)c2ccc(C#N)cc2)CC1 (stereo not drawn) [Example 5, 4-amino-5-chloro-N-[[1-[2-(4-cyanophenyl)-2-hydroxyethyl]piperidin-4-yl]methyl]-2-methoxybenzamide; hydrochloride]
change in vivo at 3 mg/kg: 76.1%

COc1cc(N)c(Cl)cc1C(=O)NCC1CCN(CC(O)c2ccccc2OC)CC1 (stereo not drawn) [Example 8, 4-amino-5-chloro-N-[[1-[2-hydroxy-2-(2-methoxyphenyl)ethyl]piperidin-4-yl]methyl]-2-methoxybenzamide; hydrochloride]
change in vivo at 3 mg/kg: 51.6%

COc1cccc(C(O)CN2CCC(CNC(=O)c3cc(Cl)c(N)cc3OC)CC2)c1 (stereo not drawn) [Example 9, 4-amino-5-chloro-N-[[1-[2-hydroxy-2-(3-methoxyphenyl)ethyl]piperidin-4-yl]methyl]-2-methoxybenzamide; hydrochloride]
change in vivo at 3 mg/kg: 55.8%

COc1cc(N)c(Cl)cc1C(=O)NCC1CCN(CC(O)c2ccccc2Cl)CC1 (stereo not drawn) [Example 13, 4-amino-5-chloro-N-[[1-[2-(2-chlorophenyl)-2-hydroxyethyl]piperidin-4-yl]methyl]-2-methoxybenzamide; hydrochloride]
change in vivo at 3 mg/kg: 14%

COc1ccc(OC)c(C(O)CN2CCC(CNC(=O)c3cc(Cl)c(N)cc3OC)CC2)c1 (stereo not drawn) [Example 15, 4-amino-5-chloro-N-[[1-[2-(2,5-dimethoxyphenyl)-2-hydroxyethyl]piperidin-4-yl]methyl]-2-methoxybenzamide; hydrochloride]
change in vivo at 3 mg/kg: 78.7%

COc1cc(N)c(Cl)cc1C(=O)NCC1CCN(CC(O)c2ccc(OC(F)F)cc2)CC1 (stereo not drawn) [Example 16, 4-amino-5-chloro-N-[[1-[2-[4-(difluoromethoxy)phenyl]-2-hydroxyethyl]piperidin-4-yl]methyl]-2-methoxybenzamide; hydrochloride]
change in vivo at 3 mg/kg: 53.6%

COc1cc(N)c(Cl)cc1C(=O)NCC1CCN(CC(O)c2ccc(F)c(F)c2)CC1 (stereo not drawn) [Example 17, 4-amino-5-chloro-N-[[1-[2-(3,4-difluorophenyl)-2-hydroxyethyl]piperidin-4-yl]methyl]-2-methoxybenzamide; hydrochloride]
change in vivo at 3 mg/kg: 22.1%

COc1cc(N)c(Cl)cc1C(=O)NCC1CCN(CC(NC(=O)O)c2ccc(C)cc2)CC1 (stereo not drawn) [Example 24, [2-[4-[[(4-amino-5-chloro-2-methoxybenzoyl)amino]methyl]piperidin-1-yl]-1-(4-methylphenyl)ethyl]carbamate; hydrochloride]
change in vivo at 3 mg/kg: 71.1%

COc1cc(N)c(Cl)cc1C(=O)NCC1CCN(CC(NC(=O)O)c2ccccc2Cl)CC1 (stereo not drawn) [Example 29, [2-[4-[[(4-amino-5-chloro-2-methoxybenzoyl)amino]methyl]piperidin-1-yl]-1-(2-chlorophenyl)ethyl]carbamate; hydrochloride]
change in vivo at 3 mg/kg: 61.3%

COc1cc(N)c(Cl)cc1C(=O)NCC1CCN(CC(NC(=O)O)c2ccc(OC(F)F)cc2)CC1 (stereo not drawn) [Example 32, [2-[4-[[(4-amino-5-chloro-2-methoxybenzoyl)amino]methyl]piperidin-1-yl]-1-[4-(difluoromethoxy)phenyl]ethyl]carbamate; hydrochloride]
change in vivo at 3 mg/kg: 40%

COc1cc(N)c(Cl)cc1C(=O)NCC1CCN(CCC(O)c2ccccc2)CC1 (stereo not drawn) [Example 36, 4-amino-5-chloro-N-[[1-(3-hydroxy-3-phenylpropyl)piperidin-4-yl]methyl]-2-methoxybenzamide; hydrochloride]
change in vivo at 3 mg/kg: 55.2%

COc1cc(N)c(Cl)cc1C(=O)NCC1CCN(CCC(O)c2ccc(F)cc2)CC1 (stereo not drawn) [Example 37, 4-amino-5-chloro-N-[[1-[3-(4-fluorophenyl)-3-hydroxypropyl]piperidin-4-yl]methyl]-2-methoxybenzamide; hydrochloride]
change in vivo at 3 mg/kg: 70.7%

COc1cc(N)c(Cl)cc1C(=O)NCC1CCN(CCC(O)c2ccc(Cl)cc2)CC1 (stereo not drawn) [Example 38, 4-amino-5-chloro-N-[[1-[3-(4-chlorophenyl)-3-hydroxypropyl]piperidin-4-yl]methyl]-2-methoxybenzamide; hydrochloride]
change in vivo at 3 mg/kg: 49.1%

COc1cc(N)c(Cl)cc1C(=O)NCC1CCN(CCC(O)c2ccc(C)cc2)CC1 (stereo not drawn) [Example 39, 4-amino-5-chloro-N-[[1-[3-hydroxy-3-(4-methylphenyl)propyl]piperidin-4-yl]methyl]-2-methoxybenzamide; hydrochloride]
change in vivo at 3 mg/kg: 40%

COc1ccc(C(O)CCN2CCC(CNC(=O)c3cc(Cl)c(N)cc3OC)CC2)cc1 (stereo not drawn) [Example 40, 4-amino-5-chloro-N-[[1-[3-hydroxy-3-(4-methoxyphenyl)propyl]piperidin-4-yl]methyl]-2-methoxybenzamide; hydrochloride]
change in vivo at 3 mg/kg: 51.6%

COc1cc(N)c(Cl)cc1C(=O)NCC1CCN(CCC(O)c2ccccc2Cl)CC1 (stereo not drawn) [Example 41, 4-amino-5-chloro-N-[[1-[3-(2-chlorophenyl)-3-hydroxypropyl]piperidin-4-yl]methyl]-2-methoxybenzamide; hydrochloride]
change in vivo at 3 mg/kg: 24.3%

COc1cc(N)c(Cl)cc1C(=O)NCC1CCN(CCC(O)c2cccc(Cl)c2)CC1 (stereo not drawn) [Example 42, 4-amino-5-chloro-N-[[1-[3-(3-chlorophenyl)-3-hydroxypropyl]piperidin-4-yl]methyl]-2-methoxybenzamide; hydrochloride]
change in vivo at 3 mg/kg: 42.7%

COc1cc(N)c(Cl)cc1C(=O)NCC1CCN(CCC(O)c2ccccc2F)CC1 (stereo not drawn) [Example 43, 4-amino-5-chloro-N-[[1-[3-(2-fluorophenyl)-3-hydroxypropyl]piperidin-4-yl]methyl]-2-methoxybenzamide; hydrochloride]
change in vivo at 3 mg/kg: 46.1%

COc1cc(N)c(Cl)cc1C(=O)NCC1CCN(CCC(O)c2cccc(Cl)c2Cl)CC1 (stereo not drawn) [Example 45, 4-amino-5-chloro-N-[[1-[3-(2,3-dichlorophenyl)-3-hydroxypropyl]piperidin-4-yl]methyl]-2-methoxybenzamide; hydrochloride]
change in vivo at 3 mg/kg: 51.4%

COc1cc(N)c(Cl)cc1C(=O)NCC1CCN(CCC(O)c2ccc(Cl)cc2Cl)CC1 (stereo not drawn) [Example 46, 4-amino-5-chloro-N-[[1-[3-(2,4-dichlorophenyl)-3-hydroxypropyl]piperidin-4-yl]methyl]-2-methoxybenzamide; hydrochloride]
change in vivo at 3 mg/kg: 45.9%

COc1cc(N)c(Cl)cc1C(=O)NCC1CCN(CCC(O)c2ccc(Cl)c(Cl)c2)CC1 (stereo not drawn) [Example 47, 4-amino-5-chloro-N-[[1-[3-(3,4-dichlorophenyl)-3-hydroxypropyl]piperidin-4-yl]methyl]-2-methoxybenzamide; hydrochloride]
change in vivo at 3 mg/kg: 25.9%

COc1cc(N)c(Cl)cc1C(=O)NCC1CCN(CCC(O)c2ccc(C(C)C)cc2)CC1 (stereo not drawn) [Example 48, 4-amino-5-chloro-N-[[1-[3-(4-isopropylphenyl)-3-hydroxypropyl]piperidin-4-yl]methyl]-2-methoxybenzamide; hydrochloride]
change in vivo at 3 mg/kg: 3.5%

COc1cccc(C(O)CCN2CCC(CNC(=O)c3cc(Cl)c(N)cc3OC)CC2)c1 (stereo not drawn) [Example 49, 4-amino-5-chloro-N-[[1-[3-(3-methoxyphenyl)-3-hydroxypropyl]piperidin-4-yl]methyl]-2-methoxybenzamide; hydrochloride]
change in vivo at 3 mg/kg: 17.8%

COc1cc(N)c(Cl)cc1C(=O)NCC1CCN(CCC(O)c2cccs2)CC1 (stereo not drawn) [Example 50, 4-amino-5-chloro-N-[[1-(3-hydroxy-3-thiophen-2-ylpropyl)piperidin-4-yl]methyl]-2-methoxybenzamide; hydrochloride]
change in vivo at 3 mg/kg: 3.9%

COc1cc(N)c(Cl)cc1C(=O)NCC1CCN(CCC(O)Cc2ccc(F)cc2)CC1 (stereo not drawn) [Example 51, 4-amino-5-chloro-N-[[1-[4-(4-fluorophenyl)-3-hydroxybutyl]piperidin-4-yl]methyl]-2-methoxybenzamide; hydrochloride]
change in vivo at 3 mg/kg: 122%

COc1cc(N)c(Cl)cc1C(=O)NCC1CCN(CCC(O)CCc2ccc(F)cc2)CC1 (stereo not drawn) [Example 52, 4-amino-5-chloro-N-[[1-[5-(4-fluorophenyl)-3-hydroxypentyl]piperidin-4-yl]methyl]-2-methoxybenzamide; hydrochloride]
change in vivo at 3 mg/kg: 131%

COc1cc(N)c(Cl)cc1C(=O)NCC1CCN(CCC(NC(=O)O)c2ccccc2)CC1 (stereo not drawn) [Example 53, [3-[4-[[(4-amino-5-chloro-2-methoxybenzoyl)amino]methyl]piperidin-1-yl]-1-phenylpropyl]carbamate; hydrochloride]
change in vivo at 3 mg/kg: 28.4%
